From ChEMBL document CHEMBL1201862, “PubChem BioAssay data set” (2004)
Active and inactive are the calls of the source.

Tests used:
[1] = biological target: T1, Fructose-bisphosphate aldolase (Mycobacterium tuberculosis, UniProt P9WQA3); test: Fluorescence-based biochemical high throughput dose response assay for inhibitors of the fructose-bisphosphate aldolase (FBA) of M. tuberculosis.; format: functional
T1 sequence (P9WQA3 whole entry): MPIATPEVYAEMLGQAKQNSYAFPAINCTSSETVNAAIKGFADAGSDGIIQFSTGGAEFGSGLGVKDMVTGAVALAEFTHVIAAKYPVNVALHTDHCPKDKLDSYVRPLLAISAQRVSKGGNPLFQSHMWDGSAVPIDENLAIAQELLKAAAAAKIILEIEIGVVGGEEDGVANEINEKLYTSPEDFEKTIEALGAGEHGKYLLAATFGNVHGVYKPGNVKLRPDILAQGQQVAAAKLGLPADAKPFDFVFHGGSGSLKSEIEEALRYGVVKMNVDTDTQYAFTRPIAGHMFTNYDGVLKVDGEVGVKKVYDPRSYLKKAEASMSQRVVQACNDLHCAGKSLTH

Protein Tat = biological target: T2, Protein Tat (Human immunodeficiency virus type 1 group M subtype B (isolate HXB2)(HIV-1), UniProt P04608); format: functional;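 note: tat binding to TAR RNA read out by fluorescence polarization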
T2 sequence (P04608 whole entry): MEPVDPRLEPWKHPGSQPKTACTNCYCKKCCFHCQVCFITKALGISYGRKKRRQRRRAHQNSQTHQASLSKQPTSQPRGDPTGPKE

[2] = biological target: T3, Carboxy-terminal domain RNA polymerase II polypeptide A small phosphatase 1 (Homo sapiens, UniProt Q9GZU7); test: inhibitors of CTDSP1, concentration-response testing, biochemical assay, absorbance-based, actives from ultra-high-throughput screening (AID 540297); format: functional
T3 sequence (Q9GZU7 whole entry): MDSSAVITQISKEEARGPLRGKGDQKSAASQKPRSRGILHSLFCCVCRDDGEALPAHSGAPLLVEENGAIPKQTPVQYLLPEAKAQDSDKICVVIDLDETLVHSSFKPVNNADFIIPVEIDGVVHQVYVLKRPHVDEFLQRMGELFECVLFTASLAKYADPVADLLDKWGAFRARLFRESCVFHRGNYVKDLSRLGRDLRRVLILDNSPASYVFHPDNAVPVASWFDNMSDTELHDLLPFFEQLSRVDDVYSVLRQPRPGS

[3] = biological target: T4, Small ubiquitin-related modifier 1 (Homo sapiens, UniProt P63165); test: inhibitors of SUMO1 partner interactions, dose response, biochemical, FRET (AID 624383); format: functional; settings: read-out: IC50_Mean
[4] = biological target: T4, Small ubiquitin-related modifier 1; test: inhibitors of SUMO1 peptide binding, dose response, biochemical, fluorescence polarization, uHTS hits (AID 624382); format: functional; settings: read-out: IC50_Mean
[5] = biological target: T5, Corticotropin-releasing factor receptor 2/Corticotropin-releasing factor-binding protein (Homo sapiens, UniProt P24387+Q13324); test: Dose Response confirmation of uHTS hits for small molecule antagonists of the CRF-binding protein and CRF-R2 receptor complex.; format: functional; settings: read-out: IC50_Mean
T5 sequence (Q13324 whole entry): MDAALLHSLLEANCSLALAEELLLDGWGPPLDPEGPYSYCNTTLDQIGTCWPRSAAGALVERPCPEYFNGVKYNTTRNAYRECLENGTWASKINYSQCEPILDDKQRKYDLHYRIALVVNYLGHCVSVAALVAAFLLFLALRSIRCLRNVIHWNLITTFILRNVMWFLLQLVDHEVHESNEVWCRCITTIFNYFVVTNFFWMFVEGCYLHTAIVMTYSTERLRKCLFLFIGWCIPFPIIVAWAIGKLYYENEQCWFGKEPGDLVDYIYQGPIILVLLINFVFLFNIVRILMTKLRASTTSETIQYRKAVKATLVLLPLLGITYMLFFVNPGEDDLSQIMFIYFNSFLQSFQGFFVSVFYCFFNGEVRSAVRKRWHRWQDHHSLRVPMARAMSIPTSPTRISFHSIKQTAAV
T5 sequence (P24387 whole entry): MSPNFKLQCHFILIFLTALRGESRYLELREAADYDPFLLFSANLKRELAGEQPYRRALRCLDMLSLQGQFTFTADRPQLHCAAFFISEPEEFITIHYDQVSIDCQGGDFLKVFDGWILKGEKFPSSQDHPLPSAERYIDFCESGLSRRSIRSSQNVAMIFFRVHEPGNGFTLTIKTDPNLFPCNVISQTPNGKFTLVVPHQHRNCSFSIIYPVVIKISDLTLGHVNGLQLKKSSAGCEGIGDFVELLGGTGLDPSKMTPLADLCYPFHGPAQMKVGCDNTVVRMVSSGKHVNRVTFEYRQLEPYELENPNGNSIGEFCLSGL

[6] = biological target: T5, Corticotropin-releasing factor receptor 2/Corticotropin-releasing factor-binding protein; test: activators of CRF receptor 2 with binding protein – uHTS hits, confirmation (AID 602473); format: functional; settings: read-out: EC50_Mean
[7] = CRF-BP/CRF-R2 complex antagonists, dose response, cell-based, uHTS hits, 384-well (AID 651639); format: functional, Homo sapiens; settings: read-out: IC50_Mean
[8] = biological target: T6, Adenosylmethionine-8-amino-7-oxononanoate aminotransferase (Mycobacterium tuberculosis, UniProt P9WQ81); test: Mycobacterium tuberculosis BioA enzyme inhibitor Measured in Biochemical System Using Plate Reader - 2163-02_Inhibitor_Dose_CherryPick_Activity.; format: functional, Mycobacterium tuberculosis UT205
T6 sequence (P9WQ81 whole entry): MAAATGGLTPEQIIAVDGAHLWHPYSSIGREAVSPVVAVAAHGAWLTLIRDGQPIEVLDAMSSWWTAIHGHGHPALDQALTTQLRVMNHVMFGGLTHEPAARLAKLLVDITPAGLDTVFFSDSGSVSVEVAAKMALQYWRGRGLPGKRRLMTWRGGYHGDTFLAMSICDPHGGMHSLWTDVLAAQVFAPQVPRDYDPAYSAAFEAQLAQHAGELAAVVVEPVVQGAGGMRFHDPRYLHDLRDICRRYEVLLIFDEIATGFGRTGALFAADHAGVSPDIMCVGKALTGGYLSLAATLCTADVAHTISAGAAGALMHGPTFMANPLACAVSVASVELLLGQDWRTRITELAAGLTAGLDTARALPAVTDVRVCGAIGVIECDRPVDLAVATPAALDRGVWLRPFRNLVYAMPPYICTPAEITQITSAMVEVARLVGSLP

[9] = Counterscreen for activators of the function of SWI/SNF related, matrix associated, actin dependent regulator of chromatin, subfamily a, member 2 (SMARCA2, BRM): Luminescence-based cell-based high throughput dose response assay to identify non-selective compounds using the VP16 reporter assay.; format: functional
[10] = biological target: SWI/SNF-related matrix-associated actin-dependent regulator of chromatin subfamily A member 2 (Homo sapiens, UniProt P51531); test: Luminescence-based cell-based high throughput dose response assay to identify activators of the function of SWI/SNF related, matrix associated, actin dependent regulator of chromatin, subfamily a, member 2 (SMARCA2, BRM).; format: functional
[11] = biological target: T7, Zinc finger protein mex-5 (Caenorhabditis elegans, UniProt Q9XUB2); test: MEX-5/TCR-2 RNA interaction inhibitors, dose response, biochemical, C. elegans, fluorescence polarization (AID 1960)
T7 sequence (Q9XUB2 whole entry): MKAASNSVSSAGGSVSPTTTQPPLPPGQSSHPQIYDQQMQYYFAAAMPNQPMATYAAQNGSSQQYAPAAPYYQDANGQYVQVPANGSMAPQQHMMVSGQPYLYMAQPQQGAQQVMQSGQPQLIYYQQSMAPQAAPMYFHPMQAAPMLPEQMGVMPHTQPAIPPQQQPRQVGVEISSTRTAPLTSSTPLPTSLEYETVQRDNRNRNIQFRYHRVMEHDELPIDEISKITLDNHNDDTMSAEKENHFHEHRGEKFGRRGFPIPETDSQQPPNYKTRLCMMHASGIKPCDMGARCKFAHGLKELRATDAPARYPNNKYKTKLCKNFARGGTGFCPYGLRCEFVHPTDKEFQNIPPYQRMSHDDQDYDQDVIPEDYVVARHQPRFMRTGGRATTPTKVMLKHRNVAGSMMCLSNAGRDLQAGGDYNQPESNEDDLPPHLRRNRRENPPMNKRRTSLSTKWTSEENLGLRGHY

[12] = biological target: DNA dC->dU-editing enzyme APOBEC-3G (Homo sapiens, UniProt Q9HC16); format: functional;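 note: Dose-response counterscreen measuring inhibition of APOBEC3G DNA deaminase activity, run while confirming APOBEC3A inhibitors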
[13] = biological target: T8, RNA-binding protein pos-1 (Caenorhabditis elegans, UniProt G5EF15); test: inhibitors of POS-1/mex-3 RNA binding, dose response, biochemical, fluorescence polarization (AID 1964);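 note: purified POS-1 fused to maltose binding protein made in E. coli; potency of compounds blocking POS-1 binding to fluorescent RNA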
T8 sequence (G5EF15 whole entry): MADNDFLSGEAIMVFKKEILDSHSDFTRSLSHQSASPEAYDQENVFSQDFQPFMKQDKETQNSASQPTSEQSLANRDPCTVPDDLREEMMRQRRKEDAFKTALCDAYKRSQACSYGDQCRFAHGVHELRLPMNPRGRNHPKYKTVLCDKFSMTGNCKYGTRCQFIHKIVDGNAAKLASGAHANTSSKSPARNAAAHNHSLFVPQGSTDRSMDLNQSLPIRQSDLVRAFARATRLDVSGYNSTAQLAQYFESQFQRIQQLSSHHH

[14] = biological target: DNA dC->dU-editing enzyme APOBEC-3A (Homo sapiens, UniProt P31941); test: Dose Response confirmation of small molecule APOBEC3A DNA Deaminase Inhibitors via a fluorescence-based single-stranded DNA deaminase assay. [Related pubchem assays (depositor defined):AID493011, AID493024]; format: functional
Large T antigen = Large T antigen (Simian virus 40, UniProt P03070); format: functional, Betapolyomavirus macacae;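 note: Confirmatory-stage PubChem screen for compounds that inhibit SV40 T antigen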
Sequence of Large T antigen (P03070 whole entry): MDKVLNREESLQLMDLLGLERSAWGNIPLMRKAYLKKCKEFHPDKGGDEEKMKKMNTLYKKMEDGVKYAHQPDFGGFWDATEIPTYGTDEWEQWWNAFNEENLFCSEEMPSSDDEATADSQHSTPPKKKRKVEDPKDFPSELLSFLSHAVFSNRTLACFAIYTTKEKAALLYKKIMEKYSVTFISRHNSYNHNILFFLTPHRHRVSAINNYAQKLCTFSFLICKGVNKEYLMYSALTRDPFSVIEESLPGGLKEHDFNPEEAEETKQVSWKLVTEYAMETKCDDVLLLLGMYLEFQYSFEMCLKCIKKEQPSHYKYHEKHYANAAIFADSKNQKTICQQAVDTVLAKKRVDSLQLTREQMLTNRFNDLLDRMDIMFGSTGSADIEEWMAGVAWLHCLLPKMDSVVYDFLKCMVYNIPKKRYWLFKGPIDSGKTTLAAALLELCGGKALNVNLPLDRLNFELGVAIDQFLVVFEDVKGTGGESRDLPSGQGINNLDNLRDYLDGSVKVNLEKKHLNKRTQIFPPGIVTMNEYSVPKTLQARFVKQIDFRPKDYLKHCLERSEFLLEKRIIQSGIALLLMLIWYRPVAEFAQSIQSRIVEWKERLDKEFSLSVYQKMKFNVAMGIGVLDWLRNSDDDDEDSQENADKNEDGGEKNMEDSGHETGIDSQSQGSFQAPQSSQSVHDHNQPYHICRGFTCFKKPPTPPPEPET

T4 sequence (P63165 whole entry): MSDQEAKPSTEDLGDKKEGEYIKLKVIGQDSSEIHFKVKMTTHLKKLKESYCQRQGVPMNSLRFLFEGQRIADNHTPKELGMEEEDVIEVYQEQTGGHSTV
Sequence of DNA dC->dU-editing enzyme APOBEC-3A (P31941 whole entry): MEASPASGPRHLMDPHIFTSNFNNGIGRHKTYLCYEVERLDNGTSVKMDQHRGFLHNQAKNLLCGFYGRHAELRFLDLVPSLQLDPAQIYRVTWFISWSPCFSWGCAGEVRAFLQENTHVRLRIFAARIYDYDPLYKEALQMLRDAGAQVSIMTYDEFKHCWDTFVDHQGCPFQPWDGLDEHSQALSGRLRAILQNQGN
Sequence of DNA dC->dU-editing enzyme APOBEC-3G (Q9HC16 whole entry, the tested form may be a part): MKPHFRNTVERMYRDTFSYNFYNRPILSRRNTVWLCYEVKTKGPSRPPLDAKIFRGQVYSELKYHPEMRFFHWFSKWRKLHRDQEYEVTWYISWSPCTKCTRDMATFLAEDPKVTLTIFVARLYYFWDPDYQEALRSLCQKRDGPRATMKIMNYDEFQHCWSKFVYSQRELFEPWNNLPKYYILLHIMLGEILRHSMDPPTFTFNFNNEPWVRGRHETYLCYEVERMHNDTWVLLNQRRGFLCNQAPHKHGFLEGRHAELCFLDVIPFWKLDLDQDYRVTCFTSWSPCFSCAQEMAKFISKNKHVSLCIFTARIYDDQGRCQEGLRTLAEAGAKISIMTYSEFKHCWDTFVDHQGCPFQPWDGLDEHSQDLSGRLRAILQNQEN
Sequence of SWI/SNF-related matrix-associated actin-dependent regulator of chromatin subfamily A member 2 (P51531 whole entry): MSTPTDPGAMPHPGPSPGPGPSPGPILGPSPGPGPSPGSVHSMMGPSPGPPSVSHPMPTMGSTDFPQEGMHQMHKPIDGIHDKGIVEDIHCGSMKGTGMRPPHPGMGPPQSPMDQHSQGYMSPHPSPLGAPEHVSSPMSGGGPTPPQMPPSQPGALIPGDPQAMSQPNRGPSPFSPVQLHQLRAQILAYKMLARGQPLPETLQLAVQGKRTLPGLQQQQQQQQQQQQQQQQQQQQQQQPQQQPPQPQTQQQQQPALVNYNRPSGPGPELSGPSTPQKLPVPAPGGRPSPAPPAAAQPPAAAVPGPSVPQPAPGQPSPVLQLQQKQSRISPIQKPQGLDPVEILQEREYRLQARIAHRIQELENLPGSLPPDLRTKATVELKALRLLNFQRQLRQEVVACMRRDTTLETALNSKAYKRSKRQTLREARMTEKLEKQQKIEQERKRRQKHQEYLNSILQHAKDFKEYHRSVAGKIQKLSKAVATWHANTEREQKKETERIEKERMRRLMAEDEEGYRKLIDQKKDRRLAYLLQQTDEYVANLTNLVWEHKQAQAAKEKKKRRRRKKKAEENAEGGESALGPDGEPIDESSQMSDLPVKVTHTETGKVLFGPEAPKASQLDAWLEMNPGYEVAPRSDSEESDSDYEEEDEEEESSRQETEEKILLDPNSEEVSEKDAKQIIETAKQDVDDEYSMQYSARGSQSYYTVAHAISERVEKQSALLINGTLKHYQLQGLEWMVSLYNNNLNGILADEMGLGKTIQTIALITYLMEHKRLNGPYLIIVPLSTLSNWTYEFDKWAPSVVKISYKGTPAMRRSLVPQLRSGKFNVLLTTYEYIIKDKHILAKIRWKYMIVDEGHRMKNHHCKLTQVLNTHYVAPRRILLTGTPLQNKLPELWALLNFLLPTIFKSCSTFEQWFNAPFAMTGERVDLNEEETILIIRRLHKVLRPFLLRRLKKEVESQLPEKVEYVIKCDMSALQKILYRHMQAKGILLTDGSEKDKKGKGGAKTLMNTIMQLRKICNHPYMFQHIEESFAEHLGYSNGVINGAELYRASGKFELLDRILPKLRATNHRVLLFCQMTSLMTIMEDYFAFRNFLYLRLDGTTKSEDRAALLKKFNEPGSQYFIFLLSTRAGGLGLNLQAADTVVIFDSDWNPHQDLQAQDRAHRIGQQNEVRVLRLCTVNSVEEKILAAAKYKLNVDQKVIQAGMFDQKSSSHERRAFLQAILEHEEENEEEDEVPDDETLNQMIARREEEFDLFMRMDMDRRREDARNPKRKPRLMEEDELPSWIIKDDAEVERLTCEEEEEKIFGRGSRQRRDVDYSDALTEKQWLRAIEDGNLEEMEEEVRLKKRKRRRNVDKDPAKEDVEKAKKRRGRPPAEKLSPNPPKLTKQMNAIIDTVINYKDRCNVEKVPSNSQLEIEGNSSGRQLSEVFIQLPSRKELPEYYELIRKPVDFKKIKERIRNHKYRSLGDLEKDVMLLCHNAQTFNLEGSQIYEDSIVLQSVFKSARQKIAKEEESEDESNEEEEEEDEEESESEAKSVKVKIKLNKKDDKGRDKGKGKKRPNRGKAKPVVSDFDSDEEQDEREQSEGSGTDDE

Cc1cc(C)nc(SCc2nc3ncccn3c2Br)n1
IC50 [1]: 1.47 µM (active)

O=C(c1ccc(=O)oc1)N1CCCc2ccccc21
IC50 (Protein Tat): 5.02 µM (inconclusive)

CC(=O)c1ccc(NC(=O)c2cccc(N3C(=O)c4ccccc4C3=O)c2)cc1
IC50 [2]: 9.44 µM (active) | IC50 [3]: 3.13 µM (active) | IC50 [4]: > 66.6 µM (inactive)

N=c1c(C(=O)NC2CCCCC2)cc2c(=O)n3ccccc3nc2n1Cc1ccco1
IC50 [1]: 3.71 µM (active)

COc1ccc(C(=O)NC(Oc2ccccc2)C(Cl)(Cl)Cl)cc1 (stereo unspecified)
IC50 [5]: 5.81 µM (active) | EC50 [6]: > 53 µM (inactive) | IC50 [7]: 14.5 µM (active)

COc1cccc(CNC(=O)c2ccc(NC(=O)C3=CSCCO3)cc2)c1
AC50 [8]: 3.61 µM (active)

CCN(CC)C(=O)CSc1nnc(-c2cccc(OC)c2)o1
EC50 [9]: > 91.1 µM (inactive) | EC50 [10]: > 91.1 µM (inactive)

N#Cc1ccccc1CN1C(=O)S/C(=C/c2cccn2-c2cccc(C(=O)O)c2)C1=O
IC50 [2]: 5.19 µM (active) | IC50 (Protein Tat): > 100 µM (active) | EC50 [11]: > 300 µM (not active) | IC50 [12]: 37 µM (active) | EC50 [13]: > 300 µM (not active) | IC50 [14]: 14.9 µM (active) | IC50 (Large T antigen): > 100 µM (active)

Cc1c(C(N)=O)sc(N)c1C(=O)OC(C)C
AC50 [8]: 3.06 µM (active)

CC(=O)c1ccc(NC(=O)C2CC(=O)N(Cc3ccccc3)C2)cc1 (stereo unspecified)
AC50 [8]: 5.19 µM (active)
